Reference: paper PMC11783601, “Analogue-Sensitive Inhibition of Histone Demethylases Uncovers Member-Specific Function in Ribosomal Protein Synthesis” (Journal of the American Chemical Society, 2025)
Entries after “also recorded” stand apart in the source; their conditions may differ.

System: nascent protein synthesis in HEK293T cells
Assay: BONCAT: azidohomoalanine incorporation, TAMRA alkyne click, in-gel fluorescence
Assay type: cell-based, human
From the text: Biochemical integrity and robust orthogonality of asKDM4-NOL pairs in cells strongly argue for their applicability in elucidating the regulatory functions of KDM4 members in cellular processes. […] To investigate the role of KDM4A in protein synthesis, we adapted the bioorthogonal noncanonical amino acid tagging (BONCAT) tactic which relies on the translational incorporation of an unnatural amino acid probe into newly synthesized proteins in cells (Figure 5A).[28] HEK293T cells expressing wild type KDM4A or its F185A mutant were treated with n-octyl IOX1 or 6A, and the synthesis of nascent proteins was tracked by pulsing the cells with azidohomoalanine (AHA). Isolated cellular extracts were subjected to copper-catalyzed click ligation with TAMRA alkyne,[50] separated on polyacrylamide gel and visualized at 532 nm light (lmax for TAMRA) to assess AHA incorporation. Overexpression of wild type KDM4A and the as variant (F185A) increased the amount of newly synthesized proteins compared to control vector-transfected cells (Figure 5B). […]
Millipore Ltd.) membrane was cut to size, activated with MeOH for 30 seconds and incubated in 10X SSC buffer for 5 minutes while shaking. The membrane was then placed on a 96-well Bio-Dot microfiltration apparatus (Bio-Rad), washed with 100µL of 10X SSC buffer and the RNA solution was applied, and vacuum filtered. Sample was then rinsed with 100µL of 10X SSC buffer.
The membrane was dried at 37 °C followed by crosslinking for 5 minutes with UV light at 254nm.
Membrane was then subject to the protocol mentioned in the section General Protocol for Western […]
16. Incorporation of Azidohomoalanine in HEK293T cells
HEK293T cells were passaged into a 6 well plate. The cells were grown overnight then transfected with 3 ug of indicated plasmid, KDM4A WT/F185A or KDM4D WT/F189A expression vector, […]
and 6 ug of Thermo Turbofect (FERR0531). KDM4A siRNA was transfected into cells using 10nM siRNA (Thermo 4392420) with 1:2 ug amount of Thermo Turbofect (FERR0531). Cells were washed 4 hours later and fresh DMEM was applied. The next day, the cells were treated with inhibitor (L-leucine NOG) and grown for 24 hours. […] The lysate was quantified with Bradford dye and 40 ug of lysate was incubated with 1 mM Tris[(1-benzyl-1H-1,2,3-triazol-4-yl)methyl]amine (TBTA […]
For analysis of AHA incorporation measured by fixed cell imaging, HEK293-T cells (ATCC CRL-1573) were grown in a 24 well plate (Corning) on poly-D-lysine (Gibco A3890401) treated glass coverslips (ThermoScientific 12-545-81P) overnight and transfected the next day with 500 ng KDM4A WT/F185A or Empty Vector (EV) equivalent using 1:2 ug of Thermo Turbofect (FERR0531). […]

## CCCCCCCCOC(=O)c1ccc(O)c2ncccc12 [n-octyl IOX1]
HEK293T cells expressing wild type KDM4A, n-octyl IOX1
  nascent protein synthesis (TAMRA in-gel fluorescence): sharp decline in protein synthesis; also recorded: subsequently inhibited
HEK293T cells, endogenous KDM4A, 10 μM n-octyl IOX1
  nascent protein synthesis (TAMRA in-gel fluorescence): protein synthesis inhibition

## CCCCCCCCOC(=O)C(=O)NC(CC(C)C)C(=O)O [6A, L-Leu octyl-ester NOG]
HEK293T cells expressing F185A, 6A
  nascent protein synthesis (TAMRA in-gel fluorescence): sharp decline in protein synthesis; also recorded: subsequently inhibited
HEK293T cells, endogenous wild type KDM4A, 200 μM 6A
  nascent protein synthesis (TAMRA in-gel fluorescence): no effect on protein synthesis; also recorded: failed to inhibit protein synthesis
